Test results: ChEMBL document CHEMBL1201862, “PubChem BioAssay data set” (2004)
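How tested: cells in 96-well plates exposed to compound for 48 hours at five concentrations. At the GI50, growth is halved.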 Active and inactive are the calls of the source. Cut-off read from the data, not from the text of the source: active = GI50 up to about 1.1 µM and inactive = higher.

What was measured:
Test in all cases: inhibition of tumour cell growth, NCI panel, 48 h
A498 = test system: A498
SR = test system: SR
NCI-H226 = test system: NCI-H226
HCC 2998 = test system: HCC 2998
OVCAR-5 = test system: OVCAR-5
HOP-62 = test system: HOP-62
A549 = test system: A549
SF-268 = test system: SF-268
LOX IMVI = test system: LOX IMVI
TK-10 = test system: TK-10
IGROV-1 = test system: IGROV-1
NCI-H460 = test system: NCI-H460
COLO 205 = test system: COLO 205
CCRF-CEM = test system: CCRF-CEM
RXF 393 = test system: RXF 393
SNB-75 = test system: SNB-75
HOP-92 = test system: HOP-92
T47D = test system: T47D
BT-549 = test system: BT-549

| Structure (SMILES) | GI50 (A498) | GI50 (SR) | GI50 (NCI-H226) | GI50 (HCC 2998) | GI50 (OVCAR-5) | GI50 (HOP-62) | GI50 (A549) | GI50 (SF-268) | GI50 (LOX IMVI) | GI50 (TK-10) | GI50 (IGROV-1) | GI50 (NCI-H460) | GI50 (COLO 205) | GI50 (CCRF-CEM) | GI50 (RXF 393) | GI50 (SNB-75) | GI50 (HOP-92) | GI50 (T47D) | GI50 (BT-549) |
| --- | --- | --- | --- | --- | --- | --- | --- | --- | --- | --- | --- | --- | --- | --- | --- | --- | --- | --- | --- |
| Cc1[nH]c2ccccc2c1/C=N/c1ccc(/N=C/c2c(C)[nH]c3ccccc23)cc1 | 52.1 µM (inactive) | 19.2 µM (inactive) | 14 µM (inactive) | 36.9 µM (inactive) | > 100 µM (inactive) | 25.1 µM (inactive) | 80 µM (inactive) | 50 µM (inactive) | 19.1 µM (inactive) | 90.4 µM (inactive) | 49.9 µM (inactive) | 41.2 µM (inactive) | 12.9 µM (inactive) | 15.4 µM (inactive) | 53 µM (inactive) | 48.3 µM (inactive) | 25.5 µM (inactive) | 25.4 µM (inactive) | 47.9 µM (inactive) |
| O=[N+]([O-])C(=C/c1cccs1)/C(=C\c1cccs1)[N+](=O)[O-] | 1.64 µM (inactive) | 0.0719 µM (active) | 2.77 µM (inactive) | 1.21 µM (inactive) | 1.68 µM (inactive) | 2.47 µM (inactive) | 2.27 µM (inactive) | 0.861 µM (active) | 0.209 µM (active) | 0.962 µM (active) | 0.774 µM (active) | 0.597 µM (active) | 0.429 µM (active) | 0.0263 µM (active) | 0.157 µM (active) | 9.46 µM (inactive) | 0.802 µM (active) | 1.68 µM (inactive) | 1.35 µM (inactive) |
| C/C=C\C(CC(=O)NCC(=O)c1c[nH]c2ccccc12)CC(=O)OC (centres undefined) | > 100 µM (inactive) | > 100 µM (inactive) | – | > 100 µM (inactive) | > 100 µM (inactive) | > 100 µM (inactive) | > 100 µM (inactive) | > 100 µM (inactive) | – | > 100 µM (inactive) | > 100 µM (inactive) | > 100 µM (inactive) | > 100 µM (inactive) | 75.2 µM (inactive) | > 100 µM (inactive) | > 100 µM (inactive) | > 100 µM (inactive) | > 100 µM (inactive) | > 100 µM (inactive) |
| Cc1ccc(S(=O)(=O)NC(CCC(=O)NNc2ccccc2)C(=O)NNc2ccccc2)cc1 (centres undefined) | > 100 µM (inactive) | 18.9 µM (inactive) | > 100 µM (inactive) | – | 46.8 µM (inactive) | > 100 µM (inactive) | 15.6 µM (inactive) | 46.8 µM (inactive) | > 100 µM (inactive) | 1.95 µM (inactive) | 91 µM (inactive) | 16.8 µM (inactive) | 13.4 µM (inactive) | 51.4 µM (inactive) | > 100 µM (inactive) | > 100 µM (inactive) | > 100 µM (inactive) | 5.47 µM (inactive) | > 100 µM (inactive) |
| COc1ccc(NC(C)=O)cc1N1C(=O)/C(=C\c2ccccc2)SC1c1cc(OC)c(OC)c(OC)c1 (centres undefined) | 60 µM (inactive) | 37.8 µM (inactive) | 24 µM (inactive) | 16.3 µM (inactive) | – | 39.2 µM (inactive) | 30.1 µM (inactive) | 17.7 µM (inactive) | 14.9 µM (inactive) | > 100 µM (inactive) | 25.9 µM (inactive) | 15.5 µM (inactive) | 26.6 µM (inactive) | 21.2 µM (inactive) | 27 µM (inactive) | – | 14.6 µM (inactive) | 40.1 µM (inactive) | 47.4 µM (inactive) |
| Clc1ccc(-c2ccc(-c3nnc(CCc4nnc(-c5ccc(-c6ccc(Cl)cc6)o5)o4)o3)o2)cc1 | 30.5 µM (inactive) | 0.276 µM (active) | > 61.7 µM (inactive) | > 100 µM (inactive) | > 100 µM (inactive) | > 50.8 µM (inactive) | > 100 µM (inactive) | 28.6 µM (inactive) | > 100 µM (inactive) | 40.9 µM (inactive) | > 71.9 µM (inactive) | > 100 µM (inactive) | > 100 µM (inactive) | 2.89 µM (inactive) | 25.8 µM (inactive) | – | > 27.5 µM (inactive) | 75.7 µM (inactive) | > 100 µM (inactive) |
| COC(=O)Cc1c(/C=C/C(C)(C)n2cnc(CCN3C(=O)CCC3=O)c2)[nH]c2ccccc12 | > 100 µM (inactive) | 61.4 µM (inactive) | > 100 µM (inactive) | – | > 100 µM (inactive) | – | 94.6 µM (inactive) | 59.6 µM (inactive) | > 100 µM (inactive) | > 100 µM (inactive) | > 100 µM (inactive) | > 100 µM (inactive) | > 100 µM (inactive) | 40.4 µM (inactive) | 36.3 µM (inactive) | 50.4 µM (inactive) | 53.6 µM (inactive) | 22.3 µM (inactive) | > 100 µM (inactive) |
| COc1cc(/C=C/c2nc(NC(=S)Nc3ccccc3)nnc2C)cc(OC)c1OC | 27.8 µM (inactive) | 12.4 µM (inactive) | 23.7 µM (inactive) | 12.6 µM (inactive) | 31.6 µM (inactive) | 35.2 µM (inactive) | 23.8 µM (inactive) | 27.4 µM (inactive) | 37.2 µM (inactive) | 41.4 µM (inactive) | 27.2 µM (inactive) | 15.7 µM (inactive) | 15.5 µM (inactive) | 13.5 µM (inactive) | 23.6 µM (inactive) | – | 53.7 µM (inactive) | 19.7 µM (inactive) | 25.2 µM (inactive) |
| O=C(CCNC(=O)OCc1ccccc1)OCCCNC(=O)OCc1ccccc1 | – | > 100 µM (inactive) | > 100 µM (inactive) | > 100 µM (inactive) | > 100 µM (inactive) | > 100 µM (inactive) | > 100 µM (inactive) | > 100 µM (inactive) | > 100 µM (inactive) | > 100 µM (inactive) | > 100 µM (inactive) | > 100 µM (inactive) | > 100 µM (inactive) | > 100 µM (inactive) | > 100 µM (inactive) | 50.8 µM (inactive) | > 100 µM (inactive) | > 100 µM (inactive) | > 100 µM (inactive) |
| C[C@]12OC[C@H](c3ccccc3)N1C(=O)C1[C@H]2CC12SCCS2 (some centres undefined) | > 100 µM (inactive) | > 100 µM (inactive) | > 100 µM (inactive) | > 100 µM (inactive) | > 100 µM (inactive) | > 100 µM (inactive) | > 100 µM (inactive) | > 100 µM (inactive) | – | > 100 µM (inactive) | > 100 µM (inactive) | > 100 µM (inactive) | > 100 µM (inactive) | > 100 µM (inactive) | > 100 µM (inactive) | > 100 µM (inactive) | > 100 µM (inactive) | > 100 µM (inactive) | > 100 µM (inactive) |
| CN(C(=O)Cc1cccc(N=C=S)c1)[C@H]1CCCC[C@@H]1N1CCCC1 | 17.2 µM (inactive) | 6.73 µM (inactive) | – | – | 19.2 µM (inactive) | 16.3 µM (inactive) | 16.4 µM (inactive) | 20 µM (inactive) | 14.5 µM (inactive) | 11.9 µM (inactive) | 13.9 µM (inactive) | 16.7 µM (inactive) | 11.8 µM (inactive) | 12.5 µM (inactive) | 12.9 µM (inactive) | 14.1 µM (inactive) | 13.8 µM (inactive) | 11.4 µM (inactive) | 11 µM (inactive) |
| c1ccc(NCCSc2nc3ccccc3s2)cc1 | 26.5 µM (inactive) | 39.7 µM (inactive) | – | – | 54 µM (inactive) | > 100 µM (inactive) | 37.7 µM (inactive) | > 100 µM (inactive) | 45.5 µM (inactive) | 23.6 µM (inactive) | > 100 µM (inactive) | 30.9 µM (inactive) | 22.4 µM (inactive) | 14.8 µM (inactive) | 55.7 µM (inactive) | > 100 µM (inactive) | 41.1 µM (inactive) | 36.2 µM (inactive) | 34.8 µM (inactive) |
| COc1ccc(/C(Cl)=C(\C#N)c2ccc(OC)c(OC)c2)cc1OC | > 100 µM (inactive) | 40.2 µM (inactive) | 77.4 µM (inactive) | > 100 µM (inactive) | > 100 µM (inactive) | 43.7 µM (inactive) | > 100 µM (inactive) | – | > 100 µM (inactive) | > 100 µM (inactive) | > 100 µM (inactive) | 36.8 µM (inactive) | 44.5 µM (inactive) | > 10 µM (inactive) | 38.6 µM (inactive) | – | 17.8 µM (inactive) | 34.4 µM (inactive) | 57.7 µM (inactive) |
| COc1ccc2c(c1)N(CCC1CCCCN1C)c1ccccc1S2 (centres undefined) [OXYRIDAZINE] | 10.8 µM (inactive) | 5.73 µM (inactive) | 23.6 µM (inactive) | – | 15.2 µM (inactive) | 15.8 µM (inactive) | 14.1 µM (inactive) | 12.4 µM (inactive) | 9.57 µM (inactive) | 14.5 µM (inactive) | 12.5 µM (inactive) | 7.46 µM (inactive) | 12.3 µM (inactive) | 10.1 µM (inactive) | 7.18 µM (inactive) | 11.6 µM (inactive) | 9.08 µM (inactive) | 10.8 µM (inactive) | 16.1 µM (inactive) |
| CN(C)c1ccc(/C=c2/c3ccccc3n3c2cc(NC(=O)NCCC[N+](C)(C)C)[n+]3C)cc1 | > 100 µM (inactive) | 75.9 µM (inactive) | – | – | > 100 µM (inactive) | > 100 µM (inactive) | > 100 µM (inactive) | > 100 µM (inactive) | 61.2 µM (inactive) | > 100 µM (inactive) | 16.4 µM (inactive) | > 100 µM (inactive) | > 100 µM (inactive) | 0.452 µM (active) | > 100 µM (inactive) | – | 30.6 µM (inactive) | 6.41 µM (inactive) | > 100 µM (inactive) |
